In patent publication US6706754B2, “Reversed amidines and methods of using for treating, preventing, or inhibiting leishmaniasis” (The United States of America as represented by the …, priority 2000, dated 2004):
≈ marks a conversion by molar mass, not a printed value. Entries after “also recorded” stand apart in the source; their conditions may differ. Counter-ions that a name gives are not always drawn.

How the values were obtained:
[1] = test system: L. mexicana infected macrophages; experiment: Infected macrophage assay, L. mexicana; format: cell-based; conditions: for Macrophage IC50 L. mexicana: J774.G8 mouse macrophages, 72 hours, 33° C., number of infected macrophages inhibited by 50%
Procedure: The susceptibilities of L. mexicania infected macrophages to candidate compounds were determined by the following assay.
(§1) A one week old, confluent culture of J774.G8 mouse macrophages was washed three times with Hank's Balanced Salt Solution (HBSS) without calcium and magnesium (Sigma, St. Louis, Mo.). The J774.G8 mouse macrophages are a continuous cell line that have been cited in the literature as supporting continuous and intracellular growth of various Leishmania sp. and they have been used for drug assays against intracellular parasites, Trypanosoma cruzi and Leishmania sp. See Alcina, A., et al. (1988) Antimicrobial Agents & Chemotherapy. 32(9):1412-5; Mendez, S., et al. (1996) International Journal for Parasitology 26(6):619-22; Hodgkinson, V. H., et al. (1996) Experimental Parasitology 83(1):94-105; and Chang, K. P. (1980) Science 209(4462): 1240-42, which are herein incorporated by reference.
(§2) The macrophages were then incubated at 37° C. in a humidified 5% CO2 incubator for 15 minutes with a Trypsin-EDTA (0.05% Trypsin, 0.53 mM EDTA 4Na) solution (GIBCO BRL, Grand Island, N.Y.). The macrophages were then detached with a cell scraper and suspended by vigorous pipetting. The macrophages were then mixed with a late log phase culture of L. mexicana promastigotes to yield a solution comprising about 5×10^5 macrophages per ml and about 25×10^5 promastigotes per ml in DMEM (pH 7.4) supplemented with 10% heat inactivated fetal calf serum comprising penicillin (50 units/ml) and streptomycin (50 μg/ml).
(§3) The macrophage-parasite mixture was then pipetted into 96-well flat-bottom plates (Costar, Cambridge, Mass.) at 200 μl per well. Infection and attachment of the macrophages was allowed to occur over a period of about 48 hours at 33° C. in a humidified 5% CO2 incubator. The wells were washed three times with HBSS to remove extracellular parasites. Each well was then treated with serial dilutions of a given candidate compound in DMEM.
(§4) The treated plate was incubated for about 72 hours at 33° C. in a humidified 5% CO2 incubator. The macrophages in each well were detached into the DMEM used for the incubation by pipetting and scraping with the tip of a microliter pipettor. 75 μl of the cell suspension was transferred to a cytospin funnel and the cells were centrifuged onto microscope slides at 800 rpm for 5 minutes using a Cytospin centrifuge (Shandon, Pittsburgh, Pa.).
(§5) The slides were air dried and then fixed in methanol for 5 seconds. After the methanol evaporated, the slides were stained with 5% Giemsa stain (Fisher, Suwanee, Ga.) in phosphate buffer comprising 3.1 mM potassium phosphate dibasic and 8.3 mM sodium phosphate monobasic for 45 minutes. After thorough washing with flowing tap water, the slides were air dried and then viewed by oil immersion microscopy to determine percentage of infected cells. A cell was considered to be infected if it comprised one or more amastigote with a visible parasite nucleus and kinetoplast. Counting parasites and counting infected cells provided similar results when determining IC50 values.
(§6) The IC50 values (the concentration of the compound that inhibited the number of infected macrophages by 50%) were determined with the software program TableCurve (SPSS Science, Chicago, Ill.) using the following dose-response equation: y=a+b/(1+(x/c)^d), where x=the drug concentration, y=absorbance at 490 nm, a=upper asymptote, b=slope, c=IC50 and d=lower asymptote. FIG. 3 provides the graphical data obtained for compound 1DWB667 as an example.

[2] = test system: L. donovani axenic amastigote-like parasites; experiment: Axenic amastigote assay (CellTiter 96 tetrazolium dye growth assay); format: cell-based; conditions: 72 hours, 37° C., pH 5.5, concentration that inhibited parasite growth by 50%
Procedure: The growth susceptibilities of L. donovani axenic amastigote-like parasites to the candidate compounds were measured in a three day assay using the tetrazolium dye-based CellTiter 96 Aqueous Non-Radioactive Cell Proliferation Assay Kit (Promega, Madison, Wis.) according to Werbovetz, K., et al. (1999) Mol. Biochem. Parasitol. 98:53-65, which is herein incorporated by reference. Pentamidine, at a starting concentration of 100 μM, and serial dilutions thereof were used as controls. Specifically, L. donovani axenic amastigotes, as described by Joshi, M. et al. (1993) Mol. Biochem. Parasitol. 58:345-354, which is herein incorporated by reference, were seeded at 10^6 cells/ml in 96-well flat-bottomed plates (Costar, Cambridge, Mass.) and maintained as axenic amastigote-like forms by serial passage at 37° C. in a humid atmosphere comprising 5% CO2 using a slightly modified potassium-based version of the medium described by Joshi, M. et al. (1993) in the presence or absence of a given candidate compound. The medium comprised 15 mM KCl, […] KH2PO4, 10 mM K2HPO4, 0.5 mM MgSO4, and 24 mM NaHCO3 to give a final potassium concentration of […]. The medium was supplemented with 20% fetal bovine serum and was brought to pH 5.5. The final volume in each well was 60 μl. The plates were incubated at 37° C. for 72 hours, then 12 μl of the aqueous CellTiter solution from the kit (Promega, Madison, Wis.) was added to each well according to the instructions of the manufacturer. The plates were returned to the incubator for about 2 to about 3 hours. Then the absorbance of each well was measured at 490 nm using a SpectraMax Plus microplate reader (Molecular Devices, Sunnyvale, Calif.).
The results for each candidate compound may be found in the FIG. 1. The IC50 values (the concentration of the agent that inhibited parasite growth by 50%) for each candidate compound were determined for axenic amastigotes with the aid of the program SoftMax Pro (Molecular Devices, Sunnyvale, Calif.) using the following dose response equation: y=((a−d)/1+(x/c)^b)+d, wherein x=drug concentration; y=absorbance at 490 nm; a=upper asymptote; b=slope; c=IC50; and d=lower asymptote. FIG. 2 is the graphical data obtained for compound 1DWB667 as an example.

[3] = test system: L. donovani infected macrophages; experiment: Infected macrophage assay, L. donovani; format: cell-based; conditions: J774.G8 mouse macrophages, 72 hours, 37° C.; number of infected macrophages inhibited by 50%
Source text: as §1, §2, §3, §4, §5, §6
The susceptibility of L. donovani infected macrophages to the compounds of the present invention were preformed by a modified protocol for L. mexicana infected macrophages above, wherein all incubations of the parasite infected macrophages were done at 37° C. rather than 33° C. FIG. 4 provides the graphical data for compound 1DWB667 as an example.

[4] = test system: L. donovani L82; experiment: In vivo assay, murine visceral model of leishmaniasis; design: species or system Leishmania donovani; conditions: BALB/c mice; for % inhibition ± S.E.M.: Table 4
[5] = test system: J774.G8 macrophages; experiment: Macrophage toxicity assay (sulforhodamine B); format: cell-based, mouse; conditions: Mus musculus, 72 hours, 37° C., macrophage growth inhibited by 50%
Procedure: The toxicity of the candidate compounds on J774.G8 macrophages was measured using a sulforhodamine B (Molecular Probes, Eugene, Oreg.) based dye assay.
Specifically, a confluent culture of macrophages in a T75 culture flask was harvested by replacing the growth medium (DMEM supplemented with 10% heat inactivated fetal calf serum, 50 units/ml penicillin, and 50 μg/ml streptomycin) with 25 ml of fresh medium and scraping the cells from the bottom of the culture flask. Cell clumps were broken up by gentle pipetting and the cell suspension was transferred to a 50 ml conical centrifuge tube. The cells were then pelleted by centrifugation at 1,000 rpm at 4° C. for 5 minutes. The supernatant was then removed and the cells were resuspended in 15 ml DMEM.
After counting an aliquot of the cell suspension, the macrophages were then diluted to about 1×10^5 cells/ml in DMEM and 180 μl was added to each well of a 96 well tissue culture plate Then 20 μl serial dilutions of a given candidate compound was added. The plate was then placed in a 37° C. humidified 5% CO2 incubator and incubated for 72 hours. Then 50 μl of 50% TCA was added to each well to fix the proteins. The plate was then incubated for at least 1 hour at 4° C.
The liquid contents of the wells were discarded and the wells were washed five times with 200 μl of distilled water. After the final wash the plate was allowed to air dry for 20 minutes. 100 μl of the sulforhodamine B dye (0.4% dye in 1% acetic acid) was added. The plate was then incubated at room temperature for 20 minutes. After discarding the dye solution, the wells were washed five times with 200 μl of 1% acetic acid and then allowed to air dry for 20 minutes. At this time, 50 μl of 10 mM TRIS base was added. After a few minutes of incubation, the absorbance of each well at 490 nm was measured in a SpectraMax Pro microplate reader (Molecular Devices, Sunnyvale, Calif.).
The IC50 values for each candidate compound (the concentration of the agent that inhibited macrophage growth by 50%) were determined for the macrophages with the aid of the program SoftMax Pro (Molecular Devices, Sunnyvale, Calif.) using the following dose response equation: y=((a−d)/1+(x/c)^b)+d, where x=drug concentration; y=absorbance at 490 nm; a=upper asymptote; b=slope; c=IC50; and d=lower asymptote. FIG. 5 provides the graphical data for compound 1DWB667 as an example.

C[C@@H]1[C@H](O)[C@@H](C)/C=C/C=C/C=C/C=C/C=C/C=C/C=C/[C@H](O[C@@H]2O[C@H](C)[C@@H](O)[C@H](N)[C@@H]2O)C[C@@H]2O[C@](O)(C[C@@H](O)C[C@@H](O)[C@H](O)CC[C@@H](O)C[C@@H](O)CC(=O)O[C@H]1C)C[C@H](O)[C@H]2C(=O)O [Amphotericin B, reference compound]
Macrophage IC50 L. mexicana [1]: 0.032 µg/mL
Axenic Amastigote IC50 L. donovani [2]: 0.342 µg/mL
Macrophage IC50 L. donovani [3]: 0.024 µg/mL

N=C(N)Nc1ccc(-c2ccc(-c3ccc(NC(=N)N)cc3)s2)cc1 [DB686, 2,5-Bis(4-guanidinophenyl)thiophene]
% inhibition ± S.E.M. ([4]; 10 mg/kg p.o. × 5): 34.91 ± 8.04%

c1cc(-c2ccc(-c3ccc(N=NC4CCCCC4)cc3)o2)ccc1N=NC1CCCCC1 [DB656, 2,5-Bis[4-(cyclohexylimino)aminophenyl]furan]
melting point: 242 to 243 °C (dec.)

2,5-Bis[2-methyl-4-(2-quinolylimino)aminophenyl]furan [DB716]
Axenic Amastigote IC50 L. donovani [2]: about 10 μg/ml

N=C(N)c1ccc(OCCCCCOc2ccc(C(=N)N)cc2)cc1 [Pentamidine, reference compound]
IC50 [5]: 9.96 µg/mL (≈ 29.3 µM)
IC50 ([1]; Leishmania mexicana, Macrophage, in Mus musculus, 72 h, read-out: Macrophage IC50 L. mexicana): > 12.5 µg/mL
reduction of parasite burden in L. mexicana infected macrophages (in words) ([1]; in vitro, cutaneous strain): ineffective in the macrophage model; also recorded: did not reduce the parasite burden
% Inhib. ± SEM ([4]; Table 3, 5 mg/kg i.v. × 5 (doses reduced by half, see footnotes a, c)): 30.5 ± 5.0%
% inhibition ± S.E.M. ([4]; 4 mg/kg i.v. × 5): 16.96 ± 3.3%
% Inhib. ± SEM ([4]; Table 5, 4 mg/kg i.v. × 5): 30.6 ± 5.2%
IC50 ([2]; Leishmania donovani): 1.22 µg/mL (≈ 3.58 µM)

2,5-Bis[2,6-dimethyl-4-(2-pyridylimino)aminophenyl]furan [DB 714]
Macrophage IC50 L. mexicana [1]: 0.359 µg/mL
Axenic Amastigote IC50 L. donovani [2]: 0.290 µg/mL
Macrophage IC50 L. donovani [3]: 0.246 µg/mL

N=C(Nc1ccc(-c2ccc(-c3ccc(NC(=N)c4ccccc4)cc3)o2)cc1)c1ccccc1 (as salt: hydrochloride) [DB613, 2,5-Bis[4-(benzimidoylamino)phenyl]furan]
melting point: 312 to 314.5 °C
